Measured values published in PubChem BioAssay AID1421 (Emory University Molecular Libraries Screening Center, 2008).
Active and inactive are the calls of the source. How the calls were made is not given here.

What follows are compounds tested against Prostaglandin E2 receptor EP2 subtype (Homo sapiens) (UniProt P43116) (assay: compounds shifting PGE2 potency at EP2 – cell-based, human EP2, PGE2 EC50 shift, dose response (AID 1421)). Conditions: EP2-expressing cells, PGE2 EC50 shift by compound.
Prostaglandin E2 receptor EP2 subtype (Homo sapiens), sequence (P43116 whole entry, looked up): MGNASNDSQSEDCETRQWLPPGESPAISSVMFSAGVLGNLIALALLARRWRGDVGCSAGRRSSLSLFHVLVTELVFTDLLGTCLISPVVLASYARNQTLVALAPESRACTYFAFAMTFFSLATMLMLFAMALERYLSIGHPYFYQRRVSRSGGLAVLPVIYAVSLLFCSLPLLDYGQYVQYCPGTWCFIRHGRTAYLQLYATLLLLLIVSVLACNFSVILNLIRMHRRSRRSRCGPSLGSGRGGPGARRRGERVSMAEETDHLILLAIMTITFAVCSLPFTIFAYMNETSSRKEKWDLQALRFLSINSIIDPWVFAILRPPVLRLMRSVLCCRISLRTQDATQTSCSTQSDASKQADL
With `CCOC(=O)C1CCN(c2c(-c3ccccc3)c3cc(Cl)ccc3[nH]c2=O)CC1` the outcome was “active”.
`CCC(=O)N(CCC(Cc1ccccc1)c1ccco1)Cc1ccco1` (centres undefined) was tested, and the outcome was “active”.
In the case of `CCOC(=O)c1c(C)[nH]c(C=O)c1Cc1cccc(Cl)c1`, the outcome is reported as “active”.
In the case of `Cc1ccc(Cn2c(=O)n(Cc3ccco3)c(=O)c3ccccc32)cc1`, the outcome is reported as “active”.
For `O=C(Nc1cc(C(F)(F)F)ccc1-n1cncn1)c1ccc(-c2ccccc2)cc1`, the outcome was “active”.
For `COc1ncnc2c1oc1nc(CC(C)C)c3c(c12)CCCC3`, the outcome was “active”.
For `CCOC(=O)c1cc(CC)sc1NC(=O)c1cc(OC)c(OC)c(OC)c1`, the outcome was “active”.
`COC(=O)c1c(NC(=O)C2CC2)sc2c1CCCC2` was tested, and the outcome was “active”.
With `CCc1ccccc1NC1c2ccccc2C(=O)N1c1cc(C)ccn1` (centres undefined) the outcome was “active”.
With `Cc1sc(NC(=O)c2ccccc2F)c(CN2CCCCC2)c1C` the outcome was “active”.
For `Cc1sc(NC(=O)c2ccccc2F)c(CN2CCCCC2C)c1C` (centres undefined), the outcome was “active”.
For `OC(COc1ccccc1)Cn1c2ccccc2c2ccccc21` (centres undefined), the outcome was “active”.
In the case of `O=C1CCC(c2ccccc2)=NN1Cc1c(F)cccc1Cl`, the outcome is reported as “active”.
With `CCOc1ccccc1NC1c2ccccc2C(=O)N1c1ccc(C)cn1` (centres undefined) the outcome was “active”.
With `O=C(O)COc1ccc(/C=C/c2ccc3cccc([N+](=O)[O-])c3n2)cc1` the outcome was “active”.

Same assay, conditions: EP2-expressing cells, PGE2 EC50 shift by compound; measured here: PGE2 EC50 at 6.7 uM compound
With `CCC(=O)N1CCN(c2nc(-c3ccccc3)c3c(c2C#N)CCCC3)CC1` the PGE2 EC50 with compound was 0.91 nM.
`CCC(=O)N(CC)c1nc(-c2cc(OC)ccc2OC)cs1` was tested, and the PGE2 EC50 with compound was 1.09 nM.
With `Cc1ccc(N(CC(=O)N/N=C/c2ccc(OC3CSC3)cc2)S(=O)(=O)c2ccccc2)cc1` the PGE2 EC50 with compound was 1.01 nM.
`CCOC(=O)c1c(NC(=O)c2ccncc2)sc(C)c1C` was tested, and the PGE2 EC50 with compound was 1 nM.
Compound `C=CCn1c(SCc2c(C)noc2C)nc2ccccc2c1=O` has a PGE2 EC50 with compound of 1.49 nM.
For `O=c1n(Cc2ccccc2F)c2ccccc2n1Cc1ccccc1F`, the PGE2 EC50 with compound was 1.01 nM.
`CCOC(=O)C1CCN(c2c(-c3ccccc3)c3cc(Cl)ccc3[nH]c2=O)CC1` gave a PGE2 EC50 with compound of 1.03 nM.
Work on `Cc1c(NC(=S)NC(=O)c2ccc(-c3ccc(Cl)cc3)o2)cccc1C(=O)O` yielded a PGE2 EC50 with compound of 0.25 nM.
`CCOC(=O)c1c(NC(=O)CC(C)C)sc(C(C)=O)c1C` gave a PGE2 EC50 with compound of 1.25 nM.
With `O=c1[nH]c(N/N=C/c2ccccc2)nc2ccccc12` the PGE2 EC50 with compound was 0.74 nM.
With `CC(C)Sc1nc2sc3c(c2c2nnc(SCC(=O)NCc4ccco4)n12)CCCC3` the PGE2 EC50 with compound was 0.93 nM.
Compound `CCc1nc(SCC(=O)Nc2nc3c(s2)CCCC3)c2ccccc2n1` has a PGE2 EC50 with compound of 1.51 nM.
`O=c1cc(N2CCCCC2)c(-c2ccccc2)nn1Cc1cccc(Cl)c1` showed a PGE2 EC50 with compound of 0.32 nM.
For `CC(C)(Sc1ccc(CCN(CCCCC2CCCCC2)C(=O)NC2CCCCC2)cc1)C(=O)O`, the PGE2 EC50 with compound was 1.23 nM.
`Cc1cccnc1N(C(=O)Nc1cccc(Cl)c1)C1=NCC(C)(C)S1` gave a PGE2 EC50 with compound of 1.22 nM.
`c1ccc(Nc2nc(N3CCNCC3)nc(N3CCOCC3)n2)cc1` was tested, and the PGE2 EC50 with compound was 1.46 nM.
Work on `C[C@H](CCC(=O)O)[C@@H]1CC[C@@H]2[C@H]3CC[C@@H]4C[C@H](O)CC[C@@]4(C)[C@@H]3CC[C@]21C` yielded a PGE2 EC50 with compound of 1.38 nM.
With `O=C(O)c1ccc(-c2ccccc2Cl)o1` the PGE2 EC50 with compound was 1.44 nM.
`COc1ccccc1-c1nnc(SCC(=O)c2ccc(C3CCCCC3)cc2)n1Cc1ccco1` showed a PGE2 EC50 with compound of 0.71 nM.
Compound `CCOc1ccccc1COC(=O)c1cccc(-n2cnnn2)c1` has a PGE2 EC50 with compound of 1.06 nM.
With `c1ccc(-c2nn3c(-c4ccccc4)nnc3s2)cc1` the PGE2 EC50 with compound was 0.84 nM.
In the case of `CCC(=O)N(CCC(Cc1ccccc1)c1ccco1)Cc1ccco1` (centres undefined), the PGE2 EC50 with compound is reported as 0.86 nM.
In the case of `CCOC(=O)c1c(C)[nH]c(C=O)c1Cc1cccc(Cl)c1`, the PGE2 EC50 with compound is reported as 0.98 nM.
Work on `Cc1ccc(Cn2c(=O)n(Cc3ccco3)c(=O)c3ccccc32)cc1` yielded a PGE2 EC50 with compound of 0.78 nM.
With `CC(Sc1cnc2ccccc2n1)C(=O)O` (centres undefined) the PGE2 EC50 with compound was 2.61 nM.
Compound `CCN(CC)c1nc(C#N)nc(N(CC)CC)n1` has a PGE2 EC50 with compound of 0.95 nM.
`CCOP(=O)(c1ccccc1)c1nc(-c2ccccc2C)oc1N1CCCCC1` (centres undefined) showed a PGE2 EC50 with compound of 0.69 nM.
Work on `Nc1c(C(=O)NCc2ccco2)c2nc3ccccc3nc2n1CCc1ccccc1` yielded a PGE2 EC50 with compound of 1.78 nM.
`O=c1oc2c3c4c(cc2c(C(F)(F)F)c1CCN1CCOCC1)CCCN4CCC3` showed a PGE2 EC50 with compound of 0.83 nM.
For `COc1ccccc1C(=O)NC(=S)Nc1cc(C(=O)O)ccc1C`, the PGE2 EC50 with compound was 1.18 nM.
`CCSc1ccccc1C(=O)Nc1ccc([N+](=O)[O-])cc1OC` showed a PGE2 EC50 with compound of 1.06 nM.
`C=CCn1c(=O)c2c(nc(-c3ccc(S(=O)(=O)O)cc3)n2C)n(C)c1=O` showed a PGE2 EC50 with compound of 2.68 nM.
In the case of `CCOC(=O)c1c(NC(=O)CSc2nnnn2CC)sc(C)c1C`, the PGE2 EC50 with compound is reported as 0.81 nM.
In the case of `CCOP(=O)(OCC)c1nc(-c2cccc3ccccc23)oc1NCCc1ccc(OC)cc1`, the PGE2 EC50 with compound is reported as 0.96 nM.
`O=C(CSc1nc(Cc2ccccc2)nc2ccccc12)c1ccc2c(c1)OCCO2` was tested, and the PGE2 EC50 with compound was 1.23 nM.
Compound `O=c1c2c(nc3n1CCCCC3)-c1ccccc1CC21CCCCC1` has a PGE2 EC50 with compound of 1.25 nM.
`CC1=CC(C)(C)N(S(=O)(=O)c2ccc(F)cc2)c2ccc(C)cc21` showed a PGE2 EC50 with compound of 0.8 nM.
`N#Cc1c(-c2cccs2)nc(SCc2ccc(Cl)cc2)[nH]c1=O` gave a PGE2 EC50 with compound of 2.85 nM.
With `Cc1cccc(Oc2nc(-c3ccccc3)cc(C)c2S(C)(=O)=O)c1C` the PGE2 EC50 with compound was 2.56 nM.
`Cn1c(=O)[nH]c(=O)c2c1nc(CN1CCN(c3cccc(Cl)c3)CC1)n2Cc1ccccc1Cl` gave a PGE2 EC50 with compound of 0.94 nM.
`COc1cccc(C(=O)Nc2cccc(OCC(=O)O)c2)c1` gave a PGE2 EC50 with compound of 0.93 nM.
Work on `CCOC1(OCC)C(c2ccc(N)cc2)C(C#N)(C#N)C1(OCC)OCC` (centres undefined) yielded a PGE2 EC50 with compound of 0.31 nM.
Work on `O=C(Nc1ccccc1)c1nn(-c2cccc(C(F)(F)F)c2)ccc1=O` yielded a PGE2 EC50 with compound of 2.72 nM.
In the case of `Cc1cc(C)c(S(=O)(=O)O)c(C)n1`, the PGE2 EC50 with compound is reported as 1.25 nM.
